Reference: article PMC3416781, “Functional Characterizations of Chemosensory Proteins of the Alfalfa Plant Bug Adelphocoris lineolatus Indicate Their Involvement in Host Recognition” (PLoS ONE, 2012)
Like-named read-outs stand apart in the source and are kept apart here.

Columns and labels:
AlinCSP1 = AlinCSP1 (Adelphocoris lineolatus, UniProt J7EJ71); test: biochemical; assay type: binding
Procedure: (§1) Fluorescence binding assays were performed on an F-380 fluorescence spectrophotometer (Tianjin, China) in a 1 cm light path quartz cuvette. The slit width used for excitation and emission was both 10 nm. The fluorescent probe N-phenyl-1-naphthylamine (1-NPN) was dissolved in methanol with a 1 mM stock solution. 1-NPN was excited at 337 nm and emission spectra were recorded between 390 nm and 530 nm.
(§2) All values reported were obtained from three independent measurements.
(§3) For determining binding constants, the intensity values corresponding to the maximum fluorescence emission were plotted against free ligand concentration. Bound ligand was evaluated from the values of fluorescence intensity assuming the protein was 100% active, with a stoichiometry of 1∶1 protein:ligand at saturation. The curves were linearized using Scatchard Plot.

AlinCSP2 = AlinCSP2 (Adelphocoris lineolatus, UniProt E7BLG5); test: biochemical; assay type: binding
AlinCSP2, sequence (E7BLG5 entry or part of it): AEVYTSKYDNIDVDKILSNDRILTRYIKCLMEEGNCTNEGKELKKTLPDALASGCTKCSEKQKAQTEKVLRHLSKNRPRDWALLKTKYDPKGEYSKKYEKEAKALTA
Procedure: as §1, §2, §3

AlinCSP3 = AlinCSP3 (Adelphocoris lineolatus, UniProt E7BLG4); test: biochemical; assay type: binding
AlinCSP3, sequence (E7BLG4 entry or part of it): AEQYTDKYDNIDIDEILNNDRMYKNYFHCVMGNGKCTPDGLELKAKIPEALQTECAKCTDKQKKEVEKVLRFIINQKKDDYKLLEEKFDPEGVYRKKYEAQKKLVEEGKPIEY
Procedure: as §1, §2, §3

A. lineolatus antennae = test: Electroantennogram (EAG) recordings; parameters: species or system Adelphocoris lineolatus; conditions: normalized to 2-octanone; for EAG response, male versus female antennae: Student t-test between sexes; for EAG response in words: male and female adult antennae, 10% (v/v) in paraffin oil, good ligand = more than 50% of 2-octanone response
From the text: Electrophysiological (EAG) recordings from each sex of adult individuals were made using Ag-AgCl glass pipette electrodes filled with 3 M KCl solution [69], [70]. The insects were anaesthetized by chilling, the antenna was amputated at the base and the tip of the antenna was cut off. The excised antenna was mounted between the electrodes by one teardrop of Spectra R360 electrically conductive gel (Syntech, Netherlands). The base of the antenna was connected to the reference electrode, while the terminal of tip-cut off antenna was connected to the recording electrode. An air stimulus controller CS-55 (Syntech, Netherlands) was used for air and chemical stimulants delivery with a constant flow of 10 ml/second flowed continuously over the antenna through the open end of the glass tube, which was positioned 1 cm from the antenna.
Twenty microliters of tested chemicals (100 µl/ml, 10% (v/v) dilution in paraffin oil except the hexadecanoic acid dissolved in hexane with 100 µg/ml) were applied to filter paper strips (1.5 cm×4 cm, Whatman No.1), and the solvent was allowed to evaporate for 30 sec before the paper strip was inserted into the glass Pasteur pipette cartridge (10 cm long, Fisher Scientific, Pittsburgh, Pennsylvania, USA). The chemicals were tested randomly, stimulus duration time was 0.5 second and an interval of at least 30 seconds was taken between stimulations for antennal recovery. Chemical odorants used for the EAG recordings are the same as used in the binding assays. […] The paraffin oil (Fluka, Buchs, Switzerland) was used to dissolve the chemicals and treated as control compound [71]. Each chemical was tested against six individual male and female antennae, and each antenna was tested three times. The signals were passed through a high impedance amplifier (CS-05 model, Syntech, the Netherlands), EAG responses were initially measured in millivolts (peak height of depolarization) and then converted to normalized responses by the Syntech EAG 2000 program (Syntech, the Netherlands). Response to the solvent control was subtracted from all normalized response and the normalized EAG responses were expressed as a percentage to the reference compound response. All results are presented as mean (±SE) normalized EAG responses. EAG responses between male and female individuals were compared with the Student t-test using SAS software.

[1] = 1-NPN and protein at 2 µM, 50 mM Tris-HCl pH 7.4, KD calculated from IC50, mean of three measurements, read-out: KD (µM) AlinCSP1
[2] = u.d. = KD not calculated because IC50>50 µM, read-out: KD (µM) AlinCSP2, given as u.d.
[3] = 1-NPN and protein at 2 µM, 50 mM Tris-HCl pH 7.4, KD calculated from IC50, mean of three measurements, read-out: KD (µM) AlinCSP3
[4] = u.d. = KD not calculated because IC50>50 µM, read-out: KD (µM) AlinCSP1, given as u.d.
[5] = u.d. = KD not calculated because IC50>50 µM, read-out: KD (µM) AlinCSP3, given as u.d.
[6] = KD (µM) AlinCSP1, 1-NPN and protein at 2 µM, 50 mM Tris-HCl pH 7.4, KD calculated from IC50, mean of three measurements
[7] = KD (µM) AlinCSP2, 1-NPN and protein at 2 µM, 50 mM Tris-HCl pH 7.4, KD calculated from IC50, mean of three measurements
[8] = KD (µM) AlinCSP3, 1-NPN and protein at 2 µM, 50 mM Tris-HCl pH 7.4, KD calculated from IC50, mean of three measurements
[9] = 1-NPN and protein at 2 µM, 50 mM Tris-HCl pH 7.4, KD calculated from IC50, mean of three measurements, read-out: KD (µM) AlinCSP2

AlinCSP1, sequence (J7EJ71 entry or part of it): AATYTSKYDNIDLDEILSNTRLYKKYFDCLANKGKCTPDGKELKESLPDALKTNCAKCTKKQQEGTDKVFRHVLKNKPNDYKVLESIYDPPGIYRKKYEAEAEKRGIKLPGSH

Kd (AlinCSP1; [1]) | Kd (AlinCSP2; [2]) | Kd (AlinCSP3; [3]) | Kd (AlinCSP1; [4]) | Kd (AlinCSP3; [5]) | SMILES | further results
44.7 ± 2.38 µM | > 50 µM | 43.8 ± 1.98 µM | – | – | CCCCCCOC(=O)CCCCC [Hexyl hexanoate] | –
45.4 ± 2.43 µM | > 50 µM | 37.1 ± 1.01 µM | – | – | CCCCC(C)O (stereo not drawn) [2-Hexanol] | EAG response, male versus female antennae (A. lineolatus antennae): significantly higher EAG responses from female antennae than from male antennae
– | > 50 µM | – | > 50 µM | > 50 µM | CCCCCCCCCCCC [Dodecane] | –
– | > 50 µM | – | > 50 µM | > 50 µM | Cc1ccc(C=O)cc1C [3,4-Dimethyl-benzaldehe, 3,4-Dimethyl-benzaldehyde] | EAG response, male versus female antennae (A. lineolatus antennae): significantly higher EAG responses from female antennae than from male antennae
– | – | – | – | – | CCCCC(C)=O [2-Hexanone] | Kd (AlinCSP1; [6]): 19.5 ± 1.73 µM; Kd (AlinCSP2; [7]): 20.4 ± 1.82 µM; Kd (AlinCSP3; [8]): 22.5 ± 1.88 µM; EAG response, male versus female antennae (A. lineolatus antennae): significantly higher EAG responses from male antennae than from female antennae
5.42 ± 0.93 µM | – | 10.7 ± 1.64 µM | – | – | C=CC(=C)CCC=C(C)C [Myrcene] | Kd (AlinCSP2; [9]): 13 ± 1.72 µM; EAG response in words (A. lineolatus antennae): failed to elicit high EAG response
– | > 50 µM | – | > 50 µM | > 50 µM | CCCCCCCCC [Nonane] | –
– | > 50 µM | – | > 50 µM | > 50 µM | CCCCC(CC)CO (stereo not drawn) [2-Ethyl-1-hexanol] | –
– | – | – | – | – | C=C1CC/C=C(\C)CC[C@@H]2[C@@H]1CC2(C)C [β-Caryophyllene] | Kd (AlinCSP1; [6]): 9.22 ± 1.08 µM; binding to AlinCSP2 in words (AlinCSP2): failed to bind with AlinCSP2; Kd (AlinCSP2; KD (µM) AlinCSP2, given as u.d., u.d. = KD not calculated because IC50>50 µM): > 50 µM; Kd (AlinCSP3; [8]): 12.3 ± 2.42 µM; EAG response in words (A. lineolatus antennae): no notable EAG response
21.5 ± 1.17 µM | – | 25.5 ± 1.67 µM | – | – | CCCCC/C=C\CCO [(Z)-3-Nonen-1-ol] | Kd (AlinCSP2; [9]): 26.4 ± 1.87 µM
– | > 50 µM | 43.5 ± 0.99 µM | > 50 µM | – | CC(C)=CCCC(C)CCO (stereo not drawn) [(-)-β-Citronellol] | –
– | – | – | – | – | C=CC(C)(O)CCC=C(C)C (stereo not drawn) [Linalool] | Kd (AlinCSP1; KD (µM) AlinCSP1, given as u.d., u.d. = KD not calculated because IC50>50 µM): > 50 µM; Kd (AlinCSP2; [7]): 46.2 ± 2.35 µM; Kd (AlinCSP3; KD (µM) AlinCSP3, given as u.d., u.d. = KD not calculated because IC50>50 µM): > 50 µM
– | – | – | – | – | COC(=O)c1ccccc1O [Methyl salicylate] | Kd (AlinCSP1; [6]): 8.67 ± 1.92 µM; Kd (AlinCSP2; [7]): 13.3 ± 1.71 µM; Kd (AlinCSP3; [8]): 11.8 ± 1.89 µM; EAG response in words (A. lineolatus antennae): failed to elicit high EAG response
28.6 ± 1.71 µM | – | 22.2 ± 1.01 µM | – | – | C=C/C(C)=C\CC=C(C)C [(Z)−ocimene] | Kd (AlinCSP2; [9]): 25.1 ± 0.93 µM
23.6 ± 1.6 µM | – | 46.5 ± 3.07 µM | – | – | CCCCCCCCCOC(C)=O [Nonyl acetate] | Kd (AlinCSP2; [9]): 29.2 ± 2.19 µM
– | > 50 µM | 46.2 ± 2.76 µM | > 50 µM | – | CCCCCCCCCCCCCC [Tetradecane] | –
– | – | – | – | – | O=Cc1ccccc1 [Benzaldehyde] | Kd (AlinCSP1; [6]): 27.5 ± 1.96 µM; Kd (AlinCSP2; [7]): 28 ± 2.11 µM; Kd (AlinCSP3; [8]): 24 ± 1.76 µM
28.1 ± 1.26 µM | – | 22.4 ± 1.33 µM | – | – | C=CC(C)(O)CCC=C(C)CCC=C(C)C (mixture of isomers) [Nerolidol] | Kd (AlinCSP2; [9]): 24.4 ± 1.36 µM
– | – | – | – | – | C=CC(=O)OCCCC [Butyl acrylate] | Kd (AlinCSP1; [6]): 38.5 ± 1.69 µM; Kd (AlinCSP2; [7]): 28.1 ± 2.37 µM; Kd (AlinCSP3; [8]): 40.2 ± 2.88 µM
– | > 50 µM | – | > 50 µM | > 50 µM | CCCCOC(=O)CCC [Butyl butyrate] | –
– | > 50 µM | – | > 50 µM | > 50 µM | Cc1cccc(C(=O)O)c1C [2,3-Dimethylbenzoic acid] | –
– | – | – | > 50 µM | > 50 µM | CCCCCCC(C)O (stereo not drawn) [2-Octanol] | Kd (AlinCSP2; [9]): 39.5 ± 2.11 µM

SMILES | Kd (AlinCSP1; [1]) | Kd (AlinCSP2; [2]) | Kd (AlinCSP3; [3]) | Kd (AlinCSP1; [4]) | Kd (AlinCSP3; [5]) | further results
C/C1=C\CC/C(C)=C/CC(C)(C)/C=C/C1 [α-Humulene] | 9.96 ± 0.89 µM | > 50 µM | 8.94 ± 2.97 µM | – | – | binding to AlinCSP2 in words (AlinCSP2): failed to bind with AlinCSP2; EAG response in words (A. lineolatus antennae): no notable EAG response
C=C(C)[C@H]1CC=C(C)CC1 [Limonene] | – | > 50 µM | – | > 50 µM | > 50 µM | –
